Assay: xn = mol fraction of the nth substance listed
Conditions: 101.3 kPa, Liquid

CCCO [propan-1-ol] + c1ccccc1
x1 = 1
Conditions | mass density [kg/m3]
288.15 K | 807.69
293.15 K | 803.703
298.15 K | 799.692
303.15 K | 795.65
308.15 K | 791.576
313.15 K | 787.466

ClC(Cl)Cl [trichloromethane] + CCCO
mass density [kg/m3]
Conditions | 288.15 K | 293.15 K | 298.15 K | 303.15 K | 308.15 K | 313.15 K
x2 = 0 | 1498.08 | 1488.64 | 1479.15 | 1469.61 | 1460.03 | 1450.41
x2 = 0.0493 | 1465.28 | 1456.03 | 1446.74 | 1437.41 | 1428.01 | 1418.58
x2 = 0.0992 | 1432.56 | 1423.54 | 1414.47 | 1405.35 | 1396.17 | 1386.95
x2 = 0.1499 | 1399.07 | 1390.3 | 1381.48 | 1372.61 | 1363.67 | 1354.7
x2 = 0.2002 | 1365.96 | 1357.46 | 1348.9 | 1340.28 | 1331.6 | 1322.86
x2 = 0.2496 | 1333.59 | 1325.35 | 1317.05 | 1308.69 | 1300.27 | 1291.8
x2 = 0.2999 | 1300.43 | 1292.46 | 1284.43 | 1276.34 | 1268.19 | 1260.01
x2 = 0.3493 | 1267.61 | 1259.92 | 1252.16 | 1244.35 | 1236.47 | 1228.55
x2 = 0.4004 | 1233.49 | 1226.07 | 1218.59 | 1211.06 | 1203.46 | 1195.83
x2 = 0.4502 | 1200.08 | 1192.93 | 1185.74 | 1178.48 | 1171.16 | 1163.79
x2 = 0.5001 | 1166.15 | 1159.29 | 1152.38 | 1145.42 | 1138.38 | 1131.32
x2 = 0.5497 | 1132.24 | 1125.66 | 1119.03 | 1112.35 | 1105.6 | 1098.81
x2 = 0.5999 | 1097.62 | 1091.33 | 1084.99 | 1078.61 | 1072.15 | 1065.65
x2 = 0.6497 | 1062.78 | 1056.79 | 1050.75 | 1044.65 | 1038.49 | 1032.31
x2 = 0.7001 | 1027.34 | 1021.65 | 1015.91 | 1010.11 | 1004.26 | 998.364
x2 = 0.7499 | 991.931 | 986.531 | 981.083 | 975.586 | 970.031 | 964.415
x2 = 0.7998 | 956.019 | 950.913 | 945.767 | 940.572 | 935.323 | 930.03
x2 = 0.8503 | 919.243 | 914.435 | 909.588 | 904.699 | 899.757 | 894.778
x2 = 0.9002 | 882.47 | 877.949 | 873.397 | 868.803 | 864.163 | 859.496
x2 = 0.95 | 845.487 | 841.239 | 836.96 | 832.652 | 828.298 | 823.912

Source: the NIST ThermoML archive (doi:10.1021/je700254t)
